Activity calls are given as the source filed them. No cut-off for these calls is given here.
Legend:
[1] = target: T1, Vitamin D3 receptor (Homo sapiens) (UniProt P11473); details: HOS
T1 sequence (whole entry): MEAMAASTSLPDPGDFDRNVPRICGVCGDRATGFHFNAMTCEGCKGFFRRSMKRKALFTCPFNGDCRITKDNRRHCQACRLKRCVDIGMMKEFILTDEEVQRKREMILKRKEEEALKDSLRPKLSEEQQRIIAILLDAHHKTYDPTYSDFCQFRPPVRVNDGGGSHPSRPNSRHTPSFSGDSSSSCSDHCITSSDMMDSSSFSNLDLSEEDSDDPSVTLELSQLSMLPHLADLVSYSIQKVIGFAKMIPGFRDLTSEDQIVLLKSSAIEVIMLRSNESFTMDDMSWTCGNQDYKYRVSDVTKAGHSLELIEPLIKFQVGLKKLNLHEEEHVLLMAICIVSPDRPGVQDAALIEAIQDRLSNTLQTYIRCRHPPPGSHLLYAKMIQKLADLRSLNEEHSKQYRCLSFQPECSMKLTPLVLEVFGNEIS
Description: Agonist activity at human VDR expressed in human HOS cells co-transfected with RXR gene assessed as osteocalcin promoter gene transactivation after 24 hrs by luciferase assay

[2] = target: T2, Vitamin D3 receptor (Gallus gallus) (UniProt O42392); test: Displacement of [26,27-methyl-3H]1alpha,25-dihydroxyvitamin D3 from chick intestinal VDR after 1 hr by liquid scintillation counting
T2 sequence (whole entry): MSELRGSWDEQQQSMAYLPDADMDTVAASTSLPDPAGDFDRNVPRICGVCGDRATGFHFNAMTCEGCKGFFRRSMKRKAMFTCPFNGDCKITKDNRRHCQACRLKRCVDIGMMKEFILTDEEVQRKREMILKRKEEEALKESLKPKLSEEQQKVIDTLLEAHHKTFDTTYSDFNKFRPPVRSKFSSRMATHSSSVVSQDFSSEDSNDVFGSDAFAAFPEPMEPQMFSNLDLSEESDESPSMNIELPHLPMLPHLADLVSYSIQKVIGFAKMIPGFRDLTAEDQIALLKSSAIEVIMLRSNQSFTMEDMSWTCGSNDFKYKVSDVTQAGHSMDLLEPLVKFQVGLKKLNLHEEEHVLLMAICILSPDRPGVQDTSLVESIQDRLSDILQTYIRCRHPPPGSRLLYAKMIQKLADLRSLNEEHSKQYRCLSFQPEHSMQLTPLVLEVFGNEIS

| Structure (SMILES) | ED50 [1] [nM] | relative binding affinity (RBA) [2] | ED50 ([1]; tested as the 2H-labelled form) [nM] | relative binding affinity (RBA) ([2]; tested as the 2H-labelled form) |
| --- | --- | --- | --- | --- |
| CC1=C(/C=C\C2=CCC[C@@]3(C)[C@@H]2CC[C@@H]3[C@H](C)CCCC(C)(C)O)C[C@@H](O)[C@H](CCCO)[C@@H]1O | 0.69 | Active |  |  |
| CC1=C(/C=C\C2=CCC[C@@]3(C)[C@@H]2CC[C@@H]3[C@H](C)CCCC(C)(C)O)C[C@@H](O)[C@H](c2ccccc2)[C@@H]1O | 0.88 | Active |  |  |
| CC1=C(/C=C\C2=CCC[C@@]3(C)[C@@H]2CC[C@@H]3[C@H](C)CCCC(C)(C)O)C[C@@H](O)[C@H](Cc2ccccc2)[C@@H]1O | 30.2 | Active |  |  |
| CC1=C(/C=C\C2=CCC[C@@]3(C)[C@@H]2CC[C@@H]3[C@H](C)CCCC(C)(C)O)C[C@@H](O)[C@H](OCCCO)[C@@H]1O | 0.95 | Active |  |  |
| CCCC[C@H]1[C@H](O)CC(/C=C\C2=CCC[C@@]3(C)[C@@H]2CC[C@@H]3[C@H](C)CCCC(C)(C)O)=C(C)[C@H]1O | 5.77 | Active |  |  |
| CC1=C(/C=C\C2=CCC[C@@]3(C)[C@@H]2CC[C@@H]3[C@H](C)CCCC(C)(C)O)C[C@@H](O)[C@H](C)[C@@H]1O | 0.12 | Active |  |  |
| CC1=C(/C=C\C2=CCC[C@@]3(C)[C@@H]2CC[C@@H]3[C@H](C)CCCC(C)(C)O)C[C@@H](O)C[C@@H]1O |  |  | 0.46 | Active |
